± gives the uncertainty stated by the source.
Assay: xn = mol fraction of the nth substance listed

CCCC(=O)OCC + C1CCCCC1
viscosity [mPa·s], 101 kPa
Conditions	298.15 K	308.15 K
x1 = 0.0551	0.852 ± 0.086	0.72 ± 0.072
x1 = 0.1552	0.796 ± 0.08	0.667 ± 0.067
x1 = 0.2554	0.75 ± 0.075	0.626 ± 0.063
x1 = 0.3554	0.711 ± 0.071	0.594 ± 0.06
x1 = 0.4504	0.682 ± 0.068	0.573 ± 0.058
x1 = 0.4992	0.669 ± 0.067	0.564 ± 0.057
x1 = 0.5558	0.656 ± 0.066	0.557 ± 0.056
x1 = 0.6532	0.638 ± 0.064	0.549 ± 0.055
x1 = 0.7547	0.624 ± 0.063	0.548 ± 0.055
x1 = 0.8532	0.616 ± 0.062	0.554 ± 0.056
x1 = 0.9564	0.613 ± 0.061	0.568 ± 0.057

CCCCN + C1CCCCC1
viscosity [mPa·s], 101 kPa
Conditions	303.15 K	313.15 K
x1 = 0.00966	0.8095 ± 0.0056	0.7083 ± 0.005
x1 = 0.01973	0.8005 ± 0.0055	0.6998 ± 0.005
x1 = 0.02822	0.7907 ± 0.0055	0.6925 ± 0.0049
x1 = 0.03804	0.7823 ± 0.0054	0.6831 ± 0.0049
x1 = 0.04713	0.7702 ± 0.0053	0.6749 ± 0.0049
x1 = 0.05811	0.758 ± 0.0053	0.6646 ± 0.0048
x1 = 0.0674	0.7469 ± 0.0052	0.6553 ± 0.0048
x1 = 0.07236	0.7374 ± 0.0052	0.6487 ± 0.0047
x1 = 0.08731	0.7267 ± 0.0051	0.637 ± 0.0047
x2 = 0.1009	0.453 ± 0.009	–
x2 = 0.2007	0.467 ± 0.009	–
x2 = 0.3012	0.492 ± 0.01	–
x2 = 0.3987	0.501 ± 0.01	–
x2 = 0.4982	0.529 ± 0.011	–
x2 = 0.5729	0.553 ± 0.011	–
x2 = 0.7003	0.601 ± 0.012	–
x2 = 0.7863	0.652 ± 0.013	–
x2 = 0.8993	0.725 ± 0.015	–

CCCCN + C1COCCO1
298.15 K, 101 kPa
Conditions	viscosity [mPa·s]
x1 = 0.05	1.094 ± 0.01
x1 = 0.1	1.019 ± 0.01
x1 = 0.1005	1.018 ± 0.01
x1 = 0.15	0.953 ± 0.011
x1 = 0.2	0.896 ± 0.011
x1 = 0.2025	0.893 ± 0.009
x1 = 0.25	0.846 ± 0.011
x1 = 0.2973	0.806 ± 0.008
x1 = 0.3	0.801 ± 0.011
x1 = 0.35	0.761 ± 0.011
x1 = 0.3935	0.726 ± 0.007
x1 = 0.4	0.725 ± 0.012
x1 = 0.45	0.692 ± 0.012
x1 = 0.4987	0.665 ± 0.007
x1 = 0.5	0.662 ± 0.012
x1 = 0.55	0.634 ± 0.012
x1 = 0.5971	0.609 ± 0.006
x1 = 0.6	0.609 ± 0.012
x1 = 0.65	0.585 ± 0.012
x1 = 0.6965	0.566 ± 0.006
x1 = 0.7	0.564 ± 0.012
x1 = 0.75	0.545 ± 0.012
x1 = 0.7959	0.529 ± 0.006
x1 = 0.8	0.528 ± 0.013
x1 = 0.85	0.512 ± 0.013
x1 = 0.9	0.498 ± 0.013
x1 = 0.9041	0.497 ± 0.005
x1 = 0.95	0.486 ± 0.013

CCCCN + C=C(C)C(=O)OC
303.15 K, 101 kPa
Conditions	viscosity [mPa·s]
x2 = 0.1016	0.4525 ± 0.0055
x2 = 0.1939	0.4608 ± 0.0055
x2 = 0.3316	0.4724 ± 0.0056
x2 = 0.4989	0.4852 ± 0.0056
x2 = 0.5966	0.4921 ± 0.0057
x2 = 0.8001	0.5045 ± 0.0057
x2 = 0.9006	0.5097 ± 0.0057

O=[N+]([O-])[O-].[Ag+] + CC#N
298.15 K, 101 kPa
Conditions	viscosity [mPa·s]
x1 = 0.012	0.409 ± 0.011
x1 = 0.03806	0.524 ± 0.014
x1 = 0.1017	1.046 ± 0.028
x1 = 0.2421	6.48 ± 0.17

O=C(O)C(Cl)(Cl)Cl + CC(=O)O
298.15 K, 101 kPa
Conditions	viscosity [mPa·s]
x1 = 0.0737	1.532 ± 0.04
x1 = 0.1777	2.228 ± 0.059
x1 = 0.3209	3.362 ± 0.089
x1 = 0.4348	4.346 ± 0.12
x1 = 0.5262	5.176 ± 0.14
x1 = 0.5853	5.859 ± 0.16
x1 = 0.6581	6.854 ± 0.18

CC(=O)[O-].[NH4+] + CC(=O)[O-].CC[n+]1ccn(C)c1
101 kPa
Conditions	viscosity [mPa·s]
298.15 K, x1 = 0.0503	152.5 ± 10
303.15 K, x1 = 0.1703	185.5 ± 12

O=C(O)C(Cl)(Cl)Cl + CC(=O)c1ccccc1
298.15 K, 101 kPa
Conditions	viscosity [mPa·s]
x1 = 0.0896	2.112 ± 0.056
x1 = 0.14	2.402 ± 0.064
x1 = 0.2121	2.931 ± 0.078
x1 = 0.2939	3.735 ± 0.099
x1 = 0.409	5.54 ± 0.15
x1 = 0.4876	7.349 ± 0.2
x1 = 0.5794	9.33 ± 0.25
x1 = 0.6815	11.15 ± 0.31

CCCCN + CC(C)(C)O
viscosity [mPa·s], 101 kPa
Conditions	x2 = 0.1	x2 = 0.2004	x2 = 0.2999	x2 = 0.4	x2 = 0.4996	x2 = 0.6	x2 = 0.7	x2 = 0.8	x2 = 0.9004	x2 = 0.95
303.15 K	0.5062 ± 0.0065	0.5833 ± 0.0074	0.681 ± 0.0085	0.804 ± 0.01	0.9662 ± 0.012	1.177 ± 0.014	1.466 ± 0.018	1.866 ± 0.023	2.458 ± 0.03	2.869 ± 0.035
308.15 K	0.4732 ± 0.0061	0.541 ± 0.0069	0.6257 ± 0.0079	0.733 ± 0.0091	0.8694 ± 0.011	1.046 ± 0.013	1.279 ± 0.016	1.591 ± 0.019	2.021 ± 0.025	2.3 ± 0.028
313.15 K	0.4425 ± 0.0057	0.5022 ± 0.0064	0.5783 ± 0.0073	0.6716 ± 0.0084	0.7865 ± 0.0097	0.9346 ± 0.011	1.119 ± 0.014	1.363 ± 0.017	1.68 ± 0.021	1.874 ± 0.023
318.15 K	0.4156 ± 0.0054	0.4687 ± 0.006	0.5345 ± 0.0068	0.6159 ± 0.0077	0.7149 ± 0.0089	0.8377 ± 0.01	0.9897 ± 0.012	1.183 ± 0.014	1.417 ± 0.017	1.553 ± 0.019
323.15 K	0.3905 ± 0.0051	0.4378 ± 0.0056	0.4957 ± 0.0063	0.5666 ± 0.0071	0.6519 ± 0.0081	0.7551 ± 0.0093	0.8801 ± 0.011	1.031 ± 0.013	1.21 ± 0.015	1.309 ± 0.016

CC[N+](=O)[O-] + CC(C)(C)O
viscosity [mPa·s], 101.33 kPa
Conditions	298.15 K	303.15 K	313.15 K
x2 = 0.0502	0.646 ± 0.006	0.61 ± 0.006	0.546 ± 0.005
x2 = 0.1001	0.647 ± 0.006	0.609 ± 0.006	0.544 ± 0.005
x2 = 0.1499	0.655 ± 0.006	0.615 ± 0.006	0.546 ± 0.005
x2 = 0.2002	0.67 ± 0.006	0.626 ± 0.006	0.547 ± 0.005
x2 = 0.2501	0.691 ± 0.006	0.643 ± 0.006	0.563 ± 0.005
x2 = 0.3001	0.718 ± 0.006	0.667 ± 0.006	0.58 ± 0.005
x2 = 0.35	0.753 ± 0.007	0.694 ± 0.006	0.597 ± 0.005
x2 = 0.4	0.794 ± 0.007	0.73 ± 0.006	0.622 ± 0.006
x2 = 0.4501	0.845 ± 0.007	0.778 ± 0.007	0.652 ± 0.006
x2 = 0.5001	0.909 ± 0.008	0.824 ± 0.007	0.687 ± 0.006
x2 = 0.55	0.988 ± 0.008	0.886 ± 0.008	0.728 ± 0.006
x2 = 0.6	1.075 ± 0.009	0.958 ± 0.008	0.777 ± 0.007
x2 = 0.6499	1.185 ± 0.01	1.047 ± 0.009	0.836 ± 0.007
x2 = 0.6998	1.323 ± 0.011	1.158 ± 0.01	0.907 ± 0.008
x2 = 0.7498	1.499 ± 0.012	1.3 ± 0.011	0.997 ± 0.008
x2 = 0.7998	1.73 ± 0.014	1.475 ± 0.012	1.104 ± 0.009
x2 = 0.8498	2.063 ± 0.016	1.728 ± 0.014	1.258 ± 0.01
x2 = 0.8997	2.505 ± 0.02	2.068 ± 0.016	1.449 ± 0.012
x2 = 0.95	3.231 ± 0.025	2.574 ± 0.02	1.718 ± 0.014

Cc1ccncc1 + CC(C)(C)O
298.15 K, 101.33 kPa
Conditions	viscosity [mPa·s]
x2 = 0.0724	0.8901 ± 0.011
x2 = 0.2166	0.9887 ± 0.011
x2 = 0.2902	1.056 ± 0.011
x2 = 0.3416	1.122 ± 0.012
x2 = 0.507	1.386 ± 0.013
x2 = 0.606	1.641 ± 0.014
x2 = 0.6484	1.777 ± 0.015
x2 = 0.7197	2.085 ± 0.017
x2 = 0.8	2.537 ± 0.02
x2 = 0.8603	2.959 ± 0.022
